Laboratory results taken from patent US20260274832A1, “COMPOUNDS AND THEIR USE IN TREATING CANCER” (ASTRAZENECA AB, priority 2023, published 2026).

Tests used:
[1] = molecular target: T1, AR (AR-full length) in LNCaP cells (Homo sapiens, UniProt P10275, T878A); test: LNCaP Androgen Receptor Imaging Assay (immunofluorescence of endogenous nuclear AR); format: cell-based; conditions: 24 h incubation; for DC50: concentration giving 50% of maximum degradation of AR per curve fit, single experiment or average of two or more; for LNCaP AR Degradation Dmax / Dmax: maximum degradation observed, normalized as % of positive control (prior art AR PROTAC at 3 μM); for Dmax: LNCaP
T1 construct: the prostate cancer cell line LNCaP (expressing AR-full length); endogenous in cells; host or cells: LNCaP
How it was run: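 LNCaP cells (12,000/well) received a 12-point compound dose series (0.3% DMSO) for 24 h at 37° C., then were PFA-fixed and stained for AR (AR441) and nuclei (DRAQ5). Nuclear AR was quantified by imaging, normalized to a 3 μM AR PROTAC control; DC50 and Dmax came from Hill/bell curve fits.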

[2] = molecular target: T2, AR (L702H) in LNCaP cells (Homo sapiens, UniProt P10275, L702H/T878A); test: LNCaP Androgen Receptor L702H Imaging Assay (LNCaP cells engineered by CRISPR/Cas9); format: cell-based; conditions: LNCaP cells with AR L702H mutation, 24 h incubation; for DC50: concentration giving 50% of maximum degradation of AR (L702H) per curve fit; for LNCaP AR (L702H) Degradation Dmax / Dmax: maximum degradation observed, normalized as % of positive control; for Dmax: LNCaP
T2 construct: engineered to introduce the mutation L702H into the AR gene using CRISPR/Cas9; endogenous in cells; host or cells: LNCaP cells edited by CRISPR/Cas9 at the AR gene
How it was run: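 CRISPR-engineered LNCaP cells carrying AR L702H were treated 24 h at 37 °C with a 12-point compound dose response (0.3% DMSO), then fixed and immunostained for AR with DRAQ5 nuclear counterstain. Nuclear AR was quantified by imaging, normalized to positive control; DC50 and Dmax came from Hill or bell-shaped fits.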

T2 sequence (P10275 whole entry L702H/T878A): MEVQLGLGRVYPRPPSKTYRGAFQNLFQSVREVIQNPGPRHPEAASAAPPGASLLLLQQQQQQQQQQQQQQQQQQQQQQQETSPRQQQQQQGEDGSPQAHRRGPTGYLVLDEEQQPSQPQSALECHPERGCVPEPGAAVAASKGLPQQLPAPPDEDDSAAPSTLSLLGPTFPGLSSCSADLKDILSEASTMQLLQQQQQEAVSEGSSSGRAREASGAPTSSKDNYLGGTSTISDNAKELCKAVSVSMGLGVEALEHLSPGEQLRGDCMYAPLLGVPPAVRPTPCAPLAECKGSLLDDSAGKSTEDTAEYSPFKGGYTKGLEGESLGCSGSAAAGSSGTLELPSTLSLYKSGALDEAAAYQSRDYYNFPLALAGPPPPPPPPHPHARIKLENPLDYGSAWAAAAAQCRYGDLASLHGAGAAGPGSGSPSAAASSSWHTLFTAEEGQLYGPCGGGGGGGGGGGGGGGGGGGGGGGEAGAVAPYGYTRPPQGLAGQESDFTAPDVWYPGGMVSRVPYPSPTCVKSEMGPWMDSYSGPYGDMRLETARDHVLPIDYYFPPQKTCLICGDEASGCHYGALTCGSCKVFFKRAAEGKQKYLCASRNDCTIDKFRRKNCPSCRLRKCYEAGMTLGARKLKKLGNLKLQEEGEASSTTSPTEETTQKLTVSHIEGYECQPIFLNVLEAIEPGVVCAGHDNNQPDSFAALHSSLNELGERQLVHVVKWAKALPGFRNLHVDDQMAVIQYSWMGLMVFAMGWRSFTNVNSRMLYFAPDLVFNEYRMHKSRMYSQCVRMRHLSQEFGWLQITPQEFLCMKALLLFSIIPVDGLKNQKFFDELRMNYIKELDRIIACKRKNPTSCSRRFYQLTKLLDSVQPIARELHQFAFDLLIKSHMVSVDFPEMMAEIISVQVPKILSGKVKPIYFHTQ
T2 sequence (Q96SW2 whole entry partner): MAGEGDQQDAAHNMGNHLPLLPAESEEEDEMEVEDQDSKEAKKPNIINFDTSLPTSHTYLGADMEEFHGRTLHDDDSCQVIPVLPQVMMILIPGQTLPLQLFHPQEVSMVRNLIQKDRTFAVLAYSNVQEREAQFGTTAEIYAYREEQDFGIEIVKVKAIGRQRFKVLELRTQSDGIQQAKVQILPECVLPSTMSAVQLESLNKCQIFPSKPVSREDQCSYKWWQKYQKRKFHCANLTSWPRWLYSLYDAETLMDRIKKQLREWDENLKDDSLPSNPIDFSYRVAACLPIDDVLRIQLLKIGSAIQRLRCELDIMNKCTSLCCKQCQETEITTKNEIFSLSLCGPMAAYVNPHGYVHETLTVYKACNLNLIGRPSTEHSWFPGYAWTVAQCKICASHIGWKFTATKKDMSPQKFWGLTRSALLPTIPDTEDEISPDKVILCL
T1 sequence (P10275 whole entry T878A): as the sequence (P10275 whole entry L702H/T878A) above, with H702L counted along it
T1 sequence (Q96SW2 whole entry partner): as the sequence (Q96SW2 whole entry partner) above

Structure (SMILES) | DC50 [1] | LNCaP AR Degradation Dmax [1] | DC50 [2] | LNCaP AR (L702H) Degradation Dmax [2] | Dmax [1] | Dmax [2]
N#Cc1c[nH]c2c(N3CCOC(c4ccc(N5CCC(CN6CCC(n7ccc8c(N9CCC(=O)NC9=O)cccc87)CC6)CC5)cc4)C3)ccc(Cl)c12 (single isomer, unassigned) [Example 118, 4-Chloro-7-[(2R*)-2-{4-[4-({4-[4-(2,4-dioxo-1,3-diazinan-1-yl)-1H-indol-1-yl]piperidin-1-yl}methyl)piperidin-1-yl]phenyl}morpholin-4-yl]-1H-indole-3-carbonitrile] | 24 nM | 92% | 2300 nM | 100% | – | –
N#Cc1n[nH]c2c(N3CCOC(c4ccc(N5CCC(CN6CCC(n7ccc8c(N9CCC(=O)NC9=O)cccc87)CC6)CC5)cc4)C3)ccc(Cl)c12 (single isomer, unassigned) [Example 119, 4-Chloro-7-[(2S*)-2-{4-[4-({4-[4-(2,4-dioxo-1,3-diazinan-1-yl)-1H-indol-1-yl]piperidin-1-yl}methyl)piperidin-1-yl]phenyl}morpholin-4-yl]-1H-indazole-3-carbonitrile] | 6 nM | – | 14 nM | – | 99% | 103%
N#Cc1n[nH]c2c(N3CCOC(c4ccc(N5CCC(CN6CCC(n7ccc8c(N9CCC(=O)NC9=O)cccc87)CC6)CC5)cc4)C3)ccc(Cl)c12 (single isomer, unassigned) [Example 120, 4-Chloro-7-[(2R*)-2-{4-[4-({4-[4-(2,4-dioxo-1,3-diazinan-1-yl)-1H-indol-1-yl]piperidin-1-yl}methyl)piperidin-1-yl]phenyl}morpholin-4-yl]-1H-indazole-3-carbonitrile] | 13 nM | 101% | 40 nM | 90% | – | –
N#Cc1c[nH]c2c(N3CCCC(c4ccc(N5CCC(CN6CCC(n7ccc8c(N9CCC(=O)NC9=O)cccc87)CC6)CC5)nn4)C3)ccc(Cl)c12 (single isomer, unassigned) [Example 121, 4-Chloro-7-[(3R*)-3-{6-[4-({4-[4-(2,4-dioxo-1,3-diazinan-1-yl)-1H-indol-1-yl]piperidin-1-yl}methyl)piperidin-1-yl]pyridazin-3-yl}piperidin-1-yl]-1H-indole-3-carbonitrile] | 18 nM | – | 3100 nM | 98% | 81% | –
N#Cc1c[nH]c2c(N3CCCC(c4ccc(N5CCC(CN6CCC(n7ccc8c(N9CCC(=O)NC9=O)cccc87)CC6)CC5)nn4)C3)ccc(Cl)c12 (single isomer, unassigned) [Example 122, 4-Chloro-7-[(3S*)-3-{6-[4-({4-[4-(2,4-dioxo-1,3-diazinan-1-yl)-1H-indol-1-yl]piperidin-1-yl}methyl)piperidin-1-yl]pyridazin-3-yl}piperidin-1-yl]-1H-indole-3-carbonitrile] | 93 nM | 85% | 67 nM | 75% | – | –
Cc1ccc(N2CCC(c3ccc(OCCCCN4CCN(c5ccc6c(c5)CN(C5CCC(=O)NC5=O)C6=O)CC4)cc3)C2)c2[nH]cc(C#N)c12 (single isomer, unassigned) [Example 150, 7-{(3S*)-3-[4-(4-{4-[2-(2,6-Dioxopiperidin-3-yl)-1-oxo-2,3-dihydro-1H-isoindol-5-yl]piperazin-1-yl}butoxy)phenyl]pyrrolidin-1-yl}-4-methyl-1H-indole-3-carbonitrile] | 14 nM | – | 893 nM | – | 82% | 50%
Cc1ccc(N2CCC(c3ccc(OCCCCN4CCN(c5ccc6c(c5)CN(C5CCC(=O)NC5=O)C6=O)CC4)cc3)C2)c2[nH]cc(C#N)c12 (single isomer, unassigned) [Example 151, 7-{(3R*)-3-[4-(4-{4-[2-(2,6-Dioxopiperidin-3-yl)-1-oxo-2,3-dihydro-1H-isoindol-5-yl]piperazin-1-yl}butoxy)phenyl]pyrrolidin-1-yl}-4-methyl-1H-indole-3-carbonitrile] | 18 nM | 67% | 497 nM | 42% | – | –
N#Cc1c[nH]c2c(N3CCCC(NC(=O)c4ccc(N5CCC(CN6CCN(c7ccc8c(c7)CN(C7CCC(=O)NC7=O)C8=O)CC6)CC5)cn4)C3)ccc(Cl)c12 (single isomer, unassigned) [Example 180, N-[(3R*)-1-(4-Chloro-3-cyano-1H-indol-7-yl)piperidin-3-yl]-5-[4-({4-[2-(2,6-dioxopiperidin-3-yl)-1-oxo-2,3-dihydro-1H-isoindol-5-yl]piperazin-1-yl}methyl)piperidin-1-yl]pyridine-2-carboxamide] | 3 nM | – | 2 nM | – | 94% | 88%
N#Cc1c[nH]c2c(N3CCCC(NC(=O)c4ccc(N5CCC(CN6CCN(c7ccc8c(c7)CN(C7CCC(=O)NC7=O)C8=O)CC6)CC5)cn4)C3)ccc(Cl)c12 (single isomer, unassigned) [Example 181, N-[(3S*)-1-(4-Chloro-3-cyano-1H-indol-7-yl)piperidin-3-yl]-5-[4-({4-[2-(2,6-dioxopiperidin-3-yl)-1-oxo-2,3-dihydro-1H-isoindol-5-yl]piperazin-1-yl}methyl)piperidin-1-yl]pyridine-2-carboxamide] | 4 nM | 95% | 9 nM | 95% | – | –
N#Cc1c[nH]c2c(N3CCC(c4ccc(N5CCC(CN6CCN(c7ccc8c(c7)CN(C7CCC(=O)NC7=O)C8=O)CC6)CC5)cc4)CC3)ccc(Cl)c12 (stereo not shown) [Example 1, 4-Chloro-7-(4-{4-[4-({4-[2-(2,6-dioxopiperidin-3-yl)-1-oxo-2,3-dihydro-1H-isoindol-5-yl]piperazin-1-yl}methyl)piperidin-1-yl]phenyl}piperidin-1-yl)-1H-indole-3-carbonitrile] | 6 nM | – | 6 nM | – | 99% | 100%
N#Cc1c[nH]c2c(N3CCC(c4ccc(N5CCC(CN6CCN(c7ccc8c(c7)CN(C7CCC(=O)NC7=O)C8=O)CC6)CC5)cc4)CC3)ccc(F)c12 (stereo not shown) [Example 2, 7-(4-{4-[4-({4-[2-(2,6-Dioxopiperidin-3-yl)-1-oxo-2,3-dihydro-1H-isoindol-5-yl]piperazin-1-yl}methyl)piperidin-1-yl]phenyl}piperidin-1-yl)-4-fluoro-1H-indole-3-carbonitrile] | 6 nM | – | 5 nM | – | 96% | 101%
N#Cc1c[nH]c2c(N3CCC(c4ccc(N5CCC(CN6CCC(n7ccc8c(N9CCC(=O)NC9=O)cccc87)CC6)CC5)cc4)CC3)ccc(Cl)c12 [Example 5, 4-Chloro-7-(4-{4-[4-({4-[4-(2,4-dioxo-1,3-diazinan-1-yl)-1H-indol-1-yl]piperidin-1-yl}methyl)piperidin-1-yl]phenyl}piperidin-1-yl)-1H-indole-3-carbonitrile] | 8 nM | – | 12 nM | – | 103% | 110%
N#Cc1c[nH]c2c(N3CCC(c4ccc(N5CCC(CN6CCC(n7ccc8c(N9CCC(=O)NC9=O)cccc87)CC6)CC5)cc4)CC3)ccc(F)c12 [Example 6, 7-(4-{4-[4-({4-[4-(2,4-Dioxo-1,3-diazinan-1-yl)-1H-indol-1-yl]piperidin-1-yl}methyl)piperidin-1-yl]phenyl}piperidin-1-yl)-4-fluoro-1H-indole-3-carbonitrile] | 10 nM | – | 13 nM | – | 100% | 103%
COc1cc(N2CCN(CC3CCN(c4ccc(C5CCN(c6ccc(Cl)c7c(C#N)c[nH]c67)CC5)cc4)CC3)CC2)cc2c1C(=O)N(C1CCC(=O)NC1=O)C2 (stereo not shown) [Example 7, 4-Chloro-7-(4-{4-[4-({4-[2-(2,6-dioxopiperidin-3-yl)-7-methoxy-1-oxo-2,3-dihydro-1H-isoindol-5-yl]piperazin-1-yl}methyl)piperidin-1-yl]phenyl}piperidin-1-yl)-1H-indole-3-carbonitrile] | 9 nM | – | 14 nM | – | 98% | 101%
Cc1ccc(N2CCC(c3ccc(N4CCC(CN5CCC(n6ccc7c(N8CCC(=O)NC8=O)cccc76)CC5)CC4)cc3)CC2)c2[nH]cc(C#N)c12 [Example 8, 7-(4-{4-[4-({4-[4-(2,4-Dioxo-1,3-diazinan-1-yl)-1H-indol-1-yl]piperidin-1-yl}methyl)piperidin-1-yl]phenyl}piperidin-1-yl)-4-methyl-1H-indole-3-carbonitrile] | 29 nM | – | 103 nM | – | 99% | 96%
N#Cc1n[nH]c2c(N3CCC[C@@H](c4ccc(N5CCC(CN6CCC(n7ccc8c(N9CCC(=O)NC9=O)cccc87)CC6)CC5)cc4)C3)ccc(Cl)c12 [Example 9] | 7 nM | – | 9 nM | – | 105% | 106%
